What was measured:
[1] = molecular target: RAC-gamma serine/threonine-protein kinase (Homo sapiens, UniProt Q9Y243); experiment: Selectivity interaction (Millipore kinase profiler) EUB0000124b AKT3; details: at 10 µM
[2] = molecular target: Ribosomal protein S6 kinase alpha-5 (Homo sapiens) (UniProt O75582); experiment: Selectivity interaction (Ambit KINOMEscan and KiNATiv profiling in Jurkat cells) EUB0000090b RPS6KA5; format: cell-based; details: at 1 µM
[3] = tested on: Phosphatidylinositol 4,5-bisphosphate 3-kinase catalytic subunit alpha isoform (Homo sapiens), P42336 [E545A]; experiment: (§1) Selectivity interaction (KinomeScan (DiscoverX)) EUB0000695a PIK3CA; details: at 100 nM
Phosphatidylinositol 4,5-bisphosphate 3-kinase catalytic subunit alpha isoform (Homo sapiens), P42336 [E545A], sequence (P42336 whole entry E545A, canonical isoform): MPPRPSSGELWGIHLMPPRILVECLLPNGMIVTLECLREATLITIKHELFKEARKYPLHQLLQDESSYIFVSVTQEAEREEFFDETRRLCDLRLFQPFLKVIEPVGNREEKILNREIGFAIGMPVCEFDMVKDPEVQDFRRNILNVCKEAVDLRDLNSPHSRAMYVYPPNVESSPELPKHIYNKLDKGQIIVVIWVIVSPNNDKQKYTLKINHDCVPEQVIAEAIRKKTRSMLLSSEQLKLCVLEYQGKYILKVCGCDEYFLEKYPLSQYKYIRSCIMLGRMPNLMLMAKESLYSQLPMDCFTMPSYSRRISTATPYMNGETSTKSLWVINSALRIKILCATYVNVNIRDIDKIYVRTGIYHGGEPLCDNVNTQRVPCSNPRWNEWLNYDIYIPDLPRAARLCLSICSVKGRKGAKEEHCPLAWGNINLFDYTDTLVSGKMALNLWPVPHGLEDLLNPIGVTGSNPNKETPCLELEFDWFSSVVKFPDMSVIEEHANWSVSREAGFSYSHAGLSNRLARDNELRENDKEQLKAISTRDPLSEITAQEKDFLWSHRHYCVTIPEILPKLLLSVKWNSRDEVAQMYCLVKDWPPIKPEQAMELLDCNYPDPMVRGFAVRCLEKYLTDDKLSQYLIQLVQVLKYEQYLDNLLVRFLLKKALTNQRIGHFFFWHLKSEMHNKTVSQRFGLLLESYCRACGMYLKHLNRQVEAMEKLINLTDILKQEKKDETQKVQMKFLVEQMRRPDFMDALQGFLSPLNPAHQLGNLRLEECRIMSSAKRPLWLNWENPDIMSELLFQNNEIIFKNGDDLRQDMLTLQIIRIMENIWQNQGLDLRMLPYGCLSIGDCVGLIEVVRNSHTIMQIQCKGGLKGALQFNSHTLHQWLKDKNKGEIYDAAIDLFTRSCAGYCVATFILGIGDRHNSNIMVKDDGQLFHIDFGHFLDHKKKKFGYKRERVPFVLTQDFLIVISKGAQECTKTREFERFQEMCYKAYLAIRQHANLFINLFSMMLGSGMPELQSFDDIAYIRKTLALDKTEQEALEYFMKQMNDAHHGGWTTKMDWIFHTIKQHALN

[4] = tested on: Phosphatidylinositol 4,5-bisphosphate 3-kinase catalytic subunit alpha isoform (Homo sapiens), P42336 [M1043I]; experiment: as §1; details: at 100 nM
Phosphatidylinositol 4,5-bisphosphate 3-kinase catalytic subunit alpha isoform (Homo sapiens), P42336 [M1043I], sequence (P42336 whole entry M1043I, canonical isoform): as the sequence (P42336 whole entry E545A, canonical isoform) above, with A545E, M1043I counted along it

[5] = tested on: Phosphatidylinositol 4,5-bisphosphate 3-kinase catalytic subunit alpha isoform (Homo sapiens), P42336 [H1047Y]; experiment: as §1; details: at 100 nM
[6] = tested on: Phosphatidylinositol 4,5-bisphosphate 3-kinase catalytic subunit alpha isoform (Homo sapiens), P42336 [I800L]; experiment: as §1; details: at 100 nM
[7] = tested on: Phosphatidylinositol 4,5-bisphosphate 3-kinase catalytic subunit alpha isoform (Homo sapiens), P42336 [C420R]; experiment: as §1; details: at 100 nM
[8] = tested on: Phosphatidylinositol 4,5-bisphosphate 3-kinase catalytic subunit alpha isoform (Homo sapiens), P42336 [Q546K]; experiment: as §1; details: at 100 nM
[9] = molecular target: Dual specificity tyrosine-phosphorylation-regulated kinase 1B (Homo sapiens, UniProt Q9Y463); experiment: Selectivity interaction (KinomeScan (DiscoverX)) EUB0001079a DYRK1B; details: at 1 µM
[10] = molecular target: T1, Cyclin-dependent kinase 11A (Homo sapiens) (UniProt Q9UQ88); experiment: Selectivity interaction (KinomeScan (DiscoverX)) EUB0000092b CDK11A; details: at 10 µM
T1 sequence (whole entry): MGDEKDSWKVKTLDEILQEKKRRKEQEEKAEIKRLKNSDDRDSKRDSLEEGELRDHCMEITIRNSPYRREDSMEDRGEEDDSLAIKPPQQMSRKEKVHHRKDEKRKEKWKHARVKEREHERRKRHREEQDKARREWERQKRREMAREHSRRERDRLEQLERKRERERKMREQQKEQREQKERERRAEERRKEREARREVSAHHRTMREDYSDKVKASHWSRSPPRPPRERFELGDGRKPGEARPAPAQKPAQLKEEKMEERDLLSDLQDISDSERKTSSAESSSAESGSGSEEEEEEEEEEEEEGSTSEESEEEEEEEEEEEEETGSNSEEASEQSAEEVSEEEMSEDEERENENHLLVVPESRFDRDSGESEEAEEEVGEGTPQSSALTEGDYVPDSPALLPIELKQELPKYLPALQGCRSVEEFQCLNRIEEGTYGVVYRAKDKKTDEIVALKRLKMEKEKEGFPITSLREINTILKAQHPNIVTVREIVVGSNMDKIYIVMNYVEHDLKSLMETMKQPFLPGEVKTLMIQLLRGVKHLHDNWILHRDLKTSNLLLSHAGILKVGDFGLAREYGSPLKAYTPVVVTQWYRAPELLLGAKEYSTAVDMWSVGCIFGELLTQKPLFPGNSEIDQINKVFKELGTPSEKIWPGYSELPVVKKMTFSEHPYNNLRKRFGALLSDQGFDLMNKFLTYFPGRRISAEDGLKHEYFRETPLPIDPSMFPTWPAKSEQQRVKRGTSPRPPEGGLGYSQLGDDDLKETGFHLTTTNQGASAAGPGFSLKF

[11] = molecular target: Vascular endothelial growth factor receptor 2 (Homo sapiens, UniProt P35968); experiment: Selectivity interaction (Upstate Kinase Profiler service (Millipore)) EUB0000056c KDR; details: at 1 µM
Vascular endothelial growth factor receptor 2, sequence (P35968 whole entry): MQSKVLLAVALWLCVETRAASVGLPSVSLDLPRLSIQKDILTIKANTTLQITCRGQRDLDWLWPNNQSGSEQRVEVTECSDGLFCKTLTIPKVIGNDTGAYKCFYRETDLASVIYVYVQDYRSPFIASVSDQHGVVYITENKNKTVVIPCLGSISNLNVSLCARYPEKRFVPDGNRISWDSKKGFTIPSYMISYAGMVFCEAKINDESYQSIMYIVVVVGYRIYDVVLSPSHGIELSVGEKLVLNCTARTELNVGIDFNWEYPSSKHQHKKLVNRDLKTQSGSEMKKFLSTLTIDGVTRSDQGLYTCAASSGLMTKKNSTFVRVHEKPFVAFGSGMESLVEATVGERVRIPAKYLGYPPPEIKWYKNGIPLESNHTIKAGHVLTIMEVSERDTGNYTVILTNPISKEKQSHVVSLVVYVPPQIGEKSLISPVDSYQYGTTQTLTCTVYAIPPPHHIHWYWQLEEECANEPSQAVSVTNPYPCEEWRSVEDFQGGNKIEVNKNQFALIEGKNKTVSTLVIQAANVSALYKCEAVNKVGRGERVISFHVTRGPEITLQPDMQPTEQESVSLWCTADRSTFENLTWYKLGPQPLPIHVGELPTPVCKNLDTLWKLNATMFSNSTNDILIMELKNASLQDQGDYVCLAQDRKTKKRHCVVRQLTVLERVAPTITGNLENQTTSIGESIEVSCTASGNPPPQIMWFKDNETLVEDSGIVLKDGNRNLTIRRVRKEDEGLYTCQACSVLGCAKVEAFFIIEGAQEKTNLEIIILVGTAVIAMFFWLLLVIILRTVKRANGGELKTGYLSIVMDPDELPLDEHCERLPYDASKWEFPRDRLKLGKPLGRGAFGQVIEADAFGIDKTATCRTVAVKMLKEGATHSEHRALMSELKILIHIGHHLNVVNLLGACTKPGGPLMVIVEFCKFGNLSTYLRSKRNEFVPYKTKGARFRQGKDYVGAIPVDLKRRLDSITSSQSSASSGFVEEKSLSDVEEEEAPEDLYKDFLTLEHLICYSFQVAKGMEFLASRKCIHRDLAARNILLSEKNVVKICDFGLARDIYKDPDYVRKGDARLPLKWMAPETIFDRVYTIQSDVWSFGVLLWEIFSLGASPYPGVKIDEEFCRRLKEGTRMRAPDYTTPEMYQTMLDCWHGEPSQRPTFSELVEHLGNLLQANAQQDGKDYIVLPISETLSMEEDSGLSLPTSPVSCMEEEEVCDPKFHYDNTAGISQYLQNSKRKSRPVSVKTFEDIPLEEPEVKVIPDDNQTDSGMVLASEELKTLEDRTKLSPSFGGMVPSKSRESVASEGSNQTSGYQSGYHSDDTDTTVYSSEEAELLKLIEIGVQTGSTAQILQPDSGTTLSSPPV

[12] = molecular target: SRSF protein kinase 2 (Homo sapiens) (UniProt P78362); experiment: Selectivity interaction (KinomeScan (DiscoverX)) EUB0000655a SRPK2; details: at 10 µM
[13] = molecular target: DNA (cytosine-5)-methyltransferase 3A (Homo sapiens) (UniProt Q9Y6K1); experiment: Selectivity interaction (Methyltransferase screen (Scintillation proximity assays)) EUB0000255b DNMT3A
DNA (cytosine-5)-methyltransferase 3A (Homo sapiens), sequence (Q9Y6K1 whole entry, looked up): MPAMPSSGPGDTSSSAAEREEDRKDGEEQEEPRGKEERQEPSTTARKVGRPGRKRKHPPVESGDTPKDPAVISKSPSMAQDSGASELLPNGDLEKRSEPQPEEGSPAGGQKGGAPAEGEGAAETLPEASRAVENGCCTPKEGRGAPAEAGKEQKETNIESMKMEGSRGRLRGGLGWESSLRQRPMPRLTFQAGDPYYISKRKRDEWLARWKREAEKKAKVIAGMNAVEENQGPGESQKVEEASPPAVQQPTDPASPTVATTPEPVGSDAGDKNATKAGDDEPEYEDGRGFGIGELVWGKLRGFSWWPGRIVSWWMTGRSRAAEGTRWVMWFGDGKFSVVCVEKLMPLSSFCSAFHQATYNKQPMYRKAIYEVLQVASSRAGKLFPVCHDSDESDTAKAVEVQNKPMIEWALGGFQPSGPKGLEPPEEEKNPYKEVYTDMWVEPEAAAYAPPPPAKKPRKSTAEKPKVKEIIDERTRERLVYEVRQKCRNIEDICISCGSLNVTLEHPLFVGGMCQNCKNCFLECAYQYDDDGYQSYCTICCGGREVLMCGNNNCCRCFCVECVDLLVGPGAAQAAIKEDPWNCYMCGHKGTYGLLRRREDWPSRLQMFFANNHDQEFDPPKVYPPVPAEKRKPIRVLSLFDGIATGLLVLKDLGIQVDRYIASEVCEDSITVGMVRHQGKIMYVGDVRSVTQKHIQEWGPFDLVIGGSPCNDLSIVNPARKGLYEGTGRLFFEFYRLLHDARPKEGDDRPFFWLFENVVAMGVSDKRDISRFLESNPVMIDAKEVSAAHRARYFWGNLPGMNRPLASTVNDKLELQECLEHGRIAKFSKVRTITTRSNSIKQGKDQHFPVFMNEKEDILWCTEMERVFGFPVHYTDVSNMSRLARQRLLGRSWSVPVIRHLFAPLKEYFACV

[14] = molecular target: Protein arginine N-methyltransferase 3 (Homo sapiens, UniProt O60678); experiment: Selectivity interaction (Scintillation proximity assays) EUB0000255b PRMT3
[15] = molecular target: T2, MAP kinase-activated protein kinase 5 (Homo sapiens) (UniProt Q8IW41); experiment: Selectivity interaction (KinomeScan (DiscoverX)) EUB0000666a MAPKAPK5; details: at 10 µM
T2 sequence (whole entry): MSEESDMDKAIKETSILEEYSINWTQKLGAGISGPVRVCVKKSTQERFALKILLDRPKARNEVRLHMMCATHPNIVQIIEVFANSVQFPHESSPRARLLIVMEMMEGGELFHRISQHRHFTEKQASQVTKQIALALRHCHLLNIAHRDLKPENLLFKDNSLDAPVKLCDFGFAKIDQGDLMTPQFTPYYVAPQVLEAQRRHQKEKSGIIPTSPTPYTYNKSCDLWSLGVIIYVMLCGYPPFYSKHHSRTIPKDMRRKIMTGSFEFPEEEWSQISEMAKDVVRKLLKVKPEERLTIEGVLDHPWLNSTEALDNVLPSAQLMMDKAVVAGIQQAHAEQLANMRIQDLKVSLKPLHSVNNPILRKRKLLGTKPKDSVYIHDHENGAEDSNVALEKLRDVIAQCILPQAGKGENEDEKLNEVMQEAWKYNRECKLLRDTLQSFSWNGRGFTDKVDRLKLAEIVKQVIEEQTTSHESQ

RAC-gamma serine/threonine-protein kinase, sequence (Q9Y243 whole entry): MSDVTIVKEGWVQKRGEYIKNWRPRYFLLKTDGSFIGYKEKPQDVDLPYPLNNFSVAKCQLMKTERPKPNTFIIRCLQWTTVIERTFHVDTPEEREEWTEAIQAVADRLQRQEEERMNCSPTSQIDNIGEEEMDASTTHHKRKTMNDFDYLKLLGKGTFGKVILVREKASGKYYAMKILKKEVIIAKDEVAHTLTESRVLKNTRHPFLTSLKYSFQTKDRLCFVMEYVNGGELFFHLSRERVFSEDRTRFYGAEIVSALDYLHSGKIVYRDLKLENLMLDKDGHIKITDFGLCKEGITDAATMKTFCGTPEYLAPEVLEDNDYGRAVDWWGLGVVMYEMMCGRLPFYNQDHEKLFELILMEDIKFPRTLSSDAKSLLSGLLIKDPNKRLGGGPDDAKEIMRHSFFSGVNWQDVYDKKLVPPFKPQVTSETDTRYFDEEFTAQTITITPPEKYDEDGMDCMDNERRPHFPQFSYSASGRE

`CC(=O)Nc1cccc(-n2c(=O)n(C3CC3)c(=O)c3c(Nc4ccc(I)cc4F)n(C)c(=O)c(C)c32)c1` gave a % of control [1] of 109%.
With `CN(C)C/C=C/C(=O)Nc1ccc(C(=O)N2CCCC(Nc3ncc(Cl)c(-c4c[nH]c5ccccc45)n3)C2)cc1` (stereo unspecified) the % of control [2] was 86%.
For `Cc1cc(F)c(C(=O)Nc2cccc(-c3nncn3C(C)C)n2)cc1-n1cnc(C2CC2)c1`, the % of control [3] was 100%, the % of control [4] was 93% and the % of control [5] was 100%. It also gave a % of control [6] of 89%, a % of control [7] of 100% and a % of control [8] of 100%.
Compound `Nc1cnc(N2CCc3cc(S(=O)(=O)Nc4c(F)cc(Cl)cc4F)cc(N4CCCC4=O)c32)nc1` [TP-020n] has a % of control [9] of 100%.
In the case of `CCC(=O)N1CCN(c2ccc(-n3c(=O)ccc4cnc5ccc(-c6cnc7ccccc7c6)cc5c43)cc2C(F)(F)F)CC1`, the % of control [10] is reported as 1.2%.
`Cc1ccc(-c2ccc3c(ccc4sc5c(c43)NC[C@@H](C)NC5=O)n2)cn1` showed a % of inhibition [11] of 32%.
`CN(C)CCOc1ccc(-c2nc(-c3ccncc3)c(-c3ccc4c(c3)CC/C4=N\O)[nH]2)cc1` showed a % of control [12] of 100%.
`COCCN1CCC(c2cc(CN(C)C(=O)c3cccc(Oc4ccccc4)c3)ccn2)CC1` was tested, and the % activity ([13]; at 1 µM) was over 95%, the % activity ([13]; at 10 µM) was over 85% and the IC50 [14] was over 10 µM.
For `O=C(NOC[C@H](O)CO)c1ccc(F)c(F)c1Nc1ccc(I)cc1F`, the % of control [15] was 100%.
